Test results as given in patent US11787762B2, “Tetralin and tetrahydroquinoline compounds as inhibitors of HIF-2alpha” (ARCUS BIOSCIENCES, INC., priority 2020, dated 2023).

Legend:
[1] = molecular target: T1, Histidine tagged HIF-2α protein containing PAS-B domain (240-350) (Homo sapiens, UniProt Q99814); assay: HIF-2α Scintillation Proximity Assay (SPA) binding assay; conditions: 50 nM HIF-2α protein, 25 nM 3H-tracer
T1 construct: HIF-2α protein containing PAS-B domain (240-350); made in house
T1 sequence (Q99814 240-350): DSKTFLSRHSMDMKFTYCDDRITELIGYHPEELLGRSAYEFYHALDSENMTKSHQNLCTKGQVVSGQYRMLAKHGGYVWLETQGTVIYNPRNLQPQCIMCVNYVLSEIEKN
How it was run: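 His-tagged HIF-2α PAS-B (240-350), 50 nM final, preincubated with compound 1 h at room temperature in 25 mM Tris-HCl pH 7.4, 150 mM NaCl, 0.15% BSA, 0.001% Tween 20, 2% DMSO. Copper-chelate SPA beads (3 ug/well, 45 min) and 25 nM tritiated N-(3-chlorophenyl)-4-nitro-2,1,3-benzoxadiazol-5-amine tracer followed; IC50 from four-parameter fits.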

HIF-2α = molecular target: T2, HIF-2α (Homo sapiens, UniProt Q99814); assay: HIF-2α luciferase reporter assay in HIF-Luc-786-O cells; format: cell-based
T2 construct: host or cells: 786-O cells stably transduced with Cignal Lenti HIF Luc Reporter (only the reporter was introduced, not HIF-2α)
T2 sequence (Q99814 whole entry): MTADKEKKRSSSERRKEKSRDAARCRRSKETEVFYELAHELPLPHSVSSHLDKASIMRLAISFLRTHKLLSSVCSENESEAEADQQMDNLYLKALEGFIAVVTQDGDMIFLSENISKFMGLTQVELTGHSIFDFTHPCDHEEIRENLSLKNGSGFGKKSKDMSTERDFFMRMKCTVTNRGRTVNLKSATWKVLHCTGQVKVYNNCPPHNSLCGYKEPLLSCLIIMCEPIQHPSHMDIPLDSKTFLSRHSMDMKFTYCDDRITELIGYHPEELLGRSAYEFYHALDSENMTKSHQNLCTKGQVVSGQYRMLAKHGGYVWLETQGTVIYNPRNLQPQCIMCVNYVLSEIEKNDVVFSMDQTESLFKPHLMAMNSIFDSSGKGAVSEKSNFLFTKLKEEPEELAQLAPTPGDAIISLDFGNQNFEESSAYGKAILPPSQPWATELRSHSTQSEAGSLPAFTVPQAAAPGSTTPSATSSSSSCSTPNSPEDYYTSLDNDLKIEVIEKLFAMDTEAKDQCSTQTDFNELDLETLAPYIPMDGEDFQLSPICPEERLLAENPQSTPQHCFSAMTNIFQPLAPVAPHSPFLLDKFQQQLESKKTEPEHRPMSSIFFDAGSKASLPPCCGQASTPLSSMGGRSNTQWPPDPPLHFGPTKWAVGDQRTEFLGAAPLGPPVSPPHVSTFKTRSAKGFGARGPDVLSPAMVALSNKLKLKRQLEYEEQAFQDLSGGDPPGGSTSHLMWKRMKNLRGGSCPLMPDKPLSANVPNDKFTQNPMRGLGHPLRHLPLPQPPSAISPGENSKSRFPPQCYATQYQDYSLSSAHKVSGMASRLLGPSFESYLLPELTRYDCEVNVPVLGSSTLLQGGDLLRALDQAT
How it was run: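 Luminescence (ONE-Glo) read after 20 h compound incubation, top concentration 50 uM, 1% DMSO, 20,000 HIF-Luc-786-O cells per well. Activity scaled between DMSO maximum and no-cell baseline; four-parameter dose-response fits yielded IC50.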

| IC50 ([1]; Table 1) | IC50 (HIF-2α; Table 1, 20 hours incubation) | IC50 ([1]; Table 2) | IC50 (HIF-2α; Table 2, 20 hours incubation) | SMILES |
| --- | --- | --- | --- | --- |
| < 100 nM | < 100 nM | – | – | N#Cc1cc(F)cc2c1[C@@H](c1ccc(S(=O)(=O)C(F)(F)F)c3c1CC[C@H]3O)CCC2 [Example 90] |
| < 100 nM | < 100 nM | – | – | N#Cc1cc(F)cc2c1[C@@H](c1ccc(C(F)(F)F)c3c1OC(F)(F)[C@H]3O)CCC2 [Example 91] |
| < 100 nM | 100 to 1000 nM | – | – | CS(=O)(=O)c1ccc([C@H]2CCCc3cc(F)cc(F)c32)c2c1[C@H](O)C(F)(F)C2 [Example 93] |
| 100 to 1000 nM | 100 to 1000 nM | – | – | CS(=O)(=O)c1ccc([C@H]2CCCc3cc(F)cc(C#N)c32)c2c1[C@H](O)[C@@H](F)CC2 [Example 94] |
| 100 to 1000 nM | 100 to 1000 nM | – | – | CS(=O)(=O)c1ccc([C@H]2CCCc3cccc(C#N)c32)c2c1[C@H](O)[C@H](F)C2 [Example 97] |
| 100 to 1000 nM | 100 to 1000 nM | – | – | CS(=O)(=O)c1ccc([C@H]2CCCc3cc(F)cc(C#N)c32)c2c1[C@H](O)[C@H](F)CC2 [Example 98] |
| 100 to 1000 nM | 100 to 1000 nM | – | – | N#Cc1cc(F)cc2c1[C@H](c1ccc(S(=O)(=O)C(F)(F)F)c3c1CC[C@H]3O)CCC2 [Example 100] |
| 100 to 1000 nM | > 1000 nM | – | – | O=S(=O)(c1ccc([C@@H]2c3c(F)cc(F)cc3CC[C@@H]2O)c2c1[C@H](O)[C@H](F)C2)C(F)(F)F [Example 101] |
| > 1000 nM | > 1000 nM | – | – | O=S(=O)(c1ccc([C@H]2CCNc3cc(F)cc(F)c32)c2c1[C@H](O)[C@H](F)C2)C(F)(F)F [Example 102] |
| > 1000 nM | > 1000 nM | – | – | O=S1(=O)c2ccc(C3CCCc4cc(F)cc(F)c43)c(Cl)c2C(O)C1(F)F (stereo not drawn) [Example 103] |
| > 1000 nM | > 1000 nM | – | – | O=S(=O)(c1ccc([C@@H]2CCOc3cc(F)cc(F)c32)c2c1[C@H](O)[C@H](F)C2)C(F)(F)F [Example 104] |
| > 1000 nM | > 1000 nM | – | – | CS(=O)(=O)c1ccc([C@@H]2CCCc3cc(F)cc(C#N)c32)c2c1[C@H](O)[C@@H](F)CC2 [Example 105] |
| > 1000 nM | > 1000 nM | – | – | CS(=O)(=O)c1ccc([C@@H]2CCCc3cnccc32)c2c1[C@H](O)C(F)(F)C2 [Example 106] |
| > 1000 nM | > 1000 nM | – | – | CS(=O)(=O)c1ccc([C@@H]2CNCc3cc(F)cc(F)c32)c2c1[C@H](O)C(F)(F)C2 [Example 107] |
| > 1000 nM | > 1000 nM | – | – | N#Cc1cc(F)cc2c1[C@H](c1ccc(C(F)(F)F)c3c1OC(F)(F)[C@H]3O)CCC2 [Example 108] |
| > 1000 nM | > 1000 nM | – | – | O=S(=O)(c1ccc([C@]2(O)CCCc3cc(F)cc(F)c32)c2c1[C@H](O)[C@H](F)C2)C(F)(F)F [Example 109] |
| > 1000 nM | > 1000 nM | – | – | CS(=O)(=O)c1ccc(C2CCCc3cc(F)cc(F)c32)c2cccnc12 (stereo not drawn) [Example 110] |
| > 1000 nM | > 1000 nM | – | – | CS(=O)(=O)c1ccc([C@H]2NCCc3cc(F)cc(F)c32)c2c1[C@H](O)C(F)(F)C2 [Example 111] |
| > 1000 nM | > 1000 nM | – | – | O=S(=O)(c1ccc([C@@H]2CCNc3cc(F)cc(F)c32)c2c1[C@H](O)[C@H](F)C2)C(F)(F)F [Example 112] |
| > 1000 nM | > 1000 nM | – | – | CC1(O)c2c(S(C)(=O)=O)ccc([C@H]3CCCc4cc(F)cc(F)c43)c2CC1(F)F (stereo partly drawn) [Example 113] |
| < 100 nM | < 100 nM | – | – | CC1(C)CC[C@H](c2ccc(S(=O)(=O)C(F)(F)F)c3c2C[C@@H](F)[C@H]3O)c2c(C#N)cc(F)cc21 [Example 114] |

| IC50 ([1]; Table 1) | IC50 (HIF-2α; Table 1, 20 hours incubation) | IC50 ([1]; Table 2) | IC50 (HIF-2α; Table 2, 20 hours incubation) | SMILES |
| --- | --- | --- | --- | --- |
| < 100 nM | < 100 nM | – | – | N#Cc1cc(F)cc2c1[C@@H](c1ccc(S(=O)(=O)C(F)F)c3c1C[C@@H](F)[C@H]3O)CCC2 [Example 115] |
| < 100 nM | < 100 nM | – | – | Cn1nccc1-c1ccc([C@H]2CCCc3cc(F)cc(C#N)c32)c2c1[C@H](O)C(F)(F)C2 [Example 116] |
| 100 to 1000 nM | 100 to 1000 nM | – | – | N#Cc1cc(F)cc2c1[C@@H](c1ccc(Cl)c3c1CC(F)(F)[C@H]3O)CCC2 [Example 117] |
| > 1000 nM | 100 to 1000 nM | – | – | N#Cc1cc(F)cc2c1N(c1ccc(C(F)(F)F)c(F)c1C#N)CCC2O (stereo not drawn) [Example 119] |
| 100 to 1000 nM | 100 to 1000 nM | – | – | CC1(O)CCN(c2ccc(C(F)(F)F)c(F)c2C#N)c2c(C#N)cc(F)cc21 (stereo not drawn) [Example 120] |
| – | – | < 100 nM | < 100 nM | N#Cc1cc(F)cc2c1N(c1ccc(C(F)(F)F)c(F)c1C#N)CC[C@@H]2F [Example 121, (4S)-1-[2-Cyano-3-fluoro-4-(trifluoromethyl)phenyl]-4,6-difluoro-3,4-dihydro-2H-quinoline-8-carbonitrile] |
| – | – | < 100 nM | < 100 nM | CS(=O)(=O)c1ccc(N2CCC(F)c3cc(F)cc(C#N)c32)c(C#N)c1Cl (stereo not drawn) [Example 122, 1-(3-chloro-2-cyano-4-methylsulfonylphenyl)-4,6-difluoro-3,4-dihydro-2H-quinoline-8-carbonitrile] |
| – | – | < 100 nM | < 100 nM | N#Cc1cc(F)cc2c1N(c1ccc(C(F)(F)F)c(Cl)c1C#N)CCC2F (stereo not drawn) [Example 123, 1-[3-Chloro-2-cyano-4-(trifluoromethyl)phenyl]-4,6-difluoro-3,4-dihydro-2H-quinoline-8-carbonitrile] |
| – | – | < 100 nM | < 100 nM | N#Cc1cc(F)cc2c1N(c1ccc(C(F)(F)F)c(F)c1C#N)CCC2C#N (stereo not drawn) [Example 124, 1-[2-cyano-3-fluoro-4-(trifluoromethyl)phenyl]-6-fluoro-3,4-dihydro-2H-quinoline-4,8-dicarbonitrile] |
| – | – | < 100 nM | < 100 nM | N#Cc1cc(F)cc2c1N(c1ccc(C(F)(F)F)c(F)c1C#N)CCC2(F)F [Example 125, 1-[2-cyano-3-fluoro-4-(trifluoromethyl)phenyl]-4,4,6-trifluoro-2,3-dihydroquinoline-8-carbonitrile] |
| – | – | < 100 nM | < 100 nM | Cc1c(N2CCC(F)(F)c3cc(F)cc(C#N)c32)cnc(C(C)(F)F)c1F [Example 126, 1-[6-(1,1-Difluoroethyl)-5-fluoro-4-methylpyridin-3-yl]-4,4,6-trifluoro-2,3-dihydroquinoline-8-carbonitrile] |
| – | – | < 100 nM | < 100 nM | N#Cc1cc(F)cc2c1N(c1cnc(C(F)(F)F)c(F)c1Cl)CCC2(F)F [Example 127, 1-[4-Chloro-5-fluoro-6-(trifluoromethyl)pyridin-3-yl]-4,4,6-trifluoro-2,3-dihydroquinoline-8-carbonitrile] |
| – | – | < 100 nM | < 100 nM | Cc1c(N2CCC(F)(F)c3cc(F)cc(C#N)c32)cnc(C(F)(F)F)c1C#N [Example 128, 1-[5-cyano-4-methyl-6-(trifluoromethyl)pyridin-3-yl]-4,4,6-trifluoro-2,3-dihydroquinoline-8-carbonitrile] |
| – | – | < 100 nM | < 100 nM | Cc1c(N2CCC(F)(F)c3cc(F)cc(C#N)c32)cnc(C(F)(F)F)c1F [Example 129, 4,4,6-Trifluoro-1-[5-fluoro-4-methyl-6-(trifluoromethyl)pyridin-3-yl]-2,3-dihydroquinoline-8-carbonitrile] |
| – | – | < 100 nM | < 100 nM | N#Cc1cc(F)cc2c1N(c1ccc(C(F)(F)F)c(F)c1C#N)C[C@H](F)[C@@H]2F [Example 130, (3S,4R)-1-[2-Cyano-3-fluoro-4-(trifluoromethyl)phenyl]-3,4,6-trifluoro-1,2,3,4-tetrahydroquinoline-8-carbonitrile] |
| – | – | < 100 nM | < 100 nM | COC1CCN(c2ccc(C(F)(F)F)c(F)c2C#N)c2c(C#N)cc(F)cc21 (stereo not drawn) [Example 131, 1-[2-Cyano-3-fluoro-4-(trifluoromethyl)phenyl]-6-fluoro-4-methoxy-3,4-dihydro-2H-quinoline-8-carbonitrile] |
| – | – | < 100 nM | < 100 nM | COC1CCN(c2ccc(C(C)(F)F)c(F)c2C#N)c2c(C#N)cc(F)cc21 (stereo not drawn) [Example 132, 1-[2-Cyano-4-(1,1-difluoroethyl)-3-fluorophenyl]-6-fluoro-4-methoxy-3,4-dihydro-2H-quinoline-8-carbonitrile] |
| – | – | < 100 nM | < 100 nM | CC(F)(F)c1ccc(N2CCC(F)(F)c3cc(F)cc(C#N)c32)c(C#N)c1F [Example 133, 1-[2-cyano-4-(1,1-difluoroethyl)-3-fluorophenyl]-4,4,6-trifluoro-1,2,3,4-tetrahydro-8-quinolinecarbonitrile] |
| – | – | < 100 nM | < 100 nM | CS(=O)(=O)c1ccc([C@H]2CC[C@H](F)c3cc(F)cc(C#N)c32)c2c1[C@H](O)[C@H](F)C2 [Example 134, (5S,8R)-3,5-Difluoro-8-[(1S,2R)-2-fluoro-1-hydroxy-7-methylsulfonyl-2,3-dihydro-1H-inden-4-yl]-5,6,7,8-tetrahydronaphthalene-1-carbonitrile] |
| – | – | < 100 nM | < 100 nM | CS(=O)(=O)c1ccc([C@H]2CCC(F)(F)c3cc(F)cc(C#N)c32)c2c1[C@H](O)[C@H](F)C2 [Example 135, (8R)-3,5,5-Trifluoro-8-[(1S,2R)-2-fluoro-1-hydroxy-7-methylsulfonyl-2,3-dihydro-1H-inden-4-yl]-7,8-dihydro-6H-naphthalene-1-carbonitrile] |

| SMILES | IC50 ([1]; Table 1) | IC50 (HIF-2α; Table 1, 20 hours incubation) | IC50 ([1]; Table 2) | IC50 (HIF-2α; Table 2, 20 hours incubation) |
| --- | --- | --- | --- | --- |
| N#Cc1cc(F)cc2c1N(c1ccc(C(F)(F)F)c(F)c1C#N)CCC2 [Example 118] | 100 to 1000 nM | 100 to 1000 nM | – | – |
